The record followed here is ChEMBL document CHEMBL1201862, “PubChem BioAssay data set” (2004).

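1) Cells in 96-well plates. 2) Compound, 48 h, 5 concentrations. 3) Linear interpolation between surrounding doses. 4) Unreached endpoint = highest concentration. GI50 marks 50% less growth.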 Active and inactive are the calls of the source. No stated cut-off is given here; in the data, active = GI50 up to about 1.1 µM and inactive = higher.

Test systems include EKVX; MOLT-4; SK-MEL-2; OVCAR-3; UACC-62; TK-10; RPMI-8226; SF-539; NCI-H23; CCRF-CEM; KM12; SK-MEL-5; UACC-257; COLO 205; IGROV-1; SR.
Assay in all cases: NCI-60 cell line screen, 48 h

Take `CSC(C1c2ccccc2N(C)C2=NC(=O)N(C)C(=O)C21Cl)S(=O)(=O)c1ccc(C)cc1` (stereo unspecified): the GI50 with EKVX is 94.4 µM (inactive); in the assay with MOLT-4 it was 17.5 µM (inactive); in the assay on SK-MEL-2, 33 µM (inactive); with OVCAR-3, 18.9 µM (inactive); in the assay with UACC-62, 91.8 µM (inactive); with TK-10 it was > 100 µM (inactive). Moreover, the GI50 in the assay with RPMI-8226 was 26.2 µM (inactive); in the assay on SF-539, 42 µM (inactive); with NCI-H23, 27 µM (inactive); in the assay on CCRF-CEM it was 9.04 µM (inactive); in the assay on KM12, 60.5 µM (inactive); in the assay on SK-MEL-5, 57.4 µM (inactive). Moreover, the results for the GI50 in the assay with UACC-257, with COLO 205 and with IGROV-1 were 79.1 µM (inactive), 40.2 µM (inactive) and > 100 µM (inactive), respectively.

For `CS(=O)(=O)NNS(=O)(=O)c1ccc(Br)cc1`, the GI50 with EKVX, in the assay with SK-MEL-2, in the assay with UACC-62, in the assay on TK-10, in the assay on RPMI-8226 and in the assay with SF-539 was > 100 µM (inactive) each time. Further, the GI50 in the assay with NCI-H23, in the assay on CCRF-CEM, in the assay with SK-MEL-5, with UACC-257, with COLO 205 and in the assay on IGROV-1 was > 100 µM (inactive) in each case.

On to `CC1CC#CCOC(=O)CCCC1=O` (stereo unspecified), for which the GI50 in the assay with MOLT-4, with OVCAR-3, in the assay on UACC-62, with TK-10, with RPMI-8226 and with SF-539 was > 100 µM (inactive) throughout. For the same compound, the GI50 in the assay on NCI-H23, in the assay on CCRF-CEM, in the assay on KM12, in the assay on SK-MEL-5, in the assay on COLO 205 and in the assay on IGROV-1 was > 100 µM (inactive) each time.

With `COc1cccc(C(=O)C2C(=O)N(C)CCc3ccccc32)c1OC` (stereo unspecified), the GI50 with MOLT-4, in the assay on SK-MEL-2, with OVCAR-3, with UACC-62, with TK-10 and with RPMI-8226 was > 100 µM (inactive) in each case. Besides, the GI50 with NCI-H23, with CCRF-CEM, with KM12, with SK-MEL-5, with UACC-257 and in the assay with COLO 205 was > 100 µM (inactive) in each case. In the assay on IGROV-1, the GI50 is > 100 µM (inactive).

As for `COc1cc(C2c3cc4c(cc3[C@@H](Nc3ccc(N(C)C)cc3)[C@H]3COC(=O)C23)OCO4)cc(OC)c1O` (stereo partly specified), the GI50 is 0.456 µM (active) with EKVX; 0.108 µM (active) in the assay on MOLT-4; 2.37 µM (inactive) in the assay with SK-MEL-2; 8.04 µM (inactive) in the assay with OVCAR-3; 0.232 µM (active) with UACC-62; 0.0127 µM (active) in the assay on SR. Moreover, the GI50 was 2.64 µM (inactive) in the assay on TK-10; 0.316 µM (active) in the assay on SF-539; 0.189 µM (active) in the assay with NCI-H23; 0.153 µM (active) in the assay on CCRF-CEM; 1.24 µM (inactive) with KM12; 0.873 µM (active) in the assay with SK-MEL-5. For the same compound, the GI50 is 2.23 µM (inactive) in the assay with UACC-257, 1.85 µM (inactive) in the assay on COLO 205 and 3.56 µM (inactive) in the assay with IGROV-1.

On to `C(=C1\CCC/C(=C/c2ccccc2)C1=NNc1ccccc1)/c1ccccc1`, for which the GI50 in the assay on EKVX, in the assay on MOLT-4, in the assay on SK-MEL-2, in the assay with OVCAR-3, in the assay with UACC-62 and with TK-10 was > 100 µM (inactive) throughout. Further, the GI50 in the assay with RPMI-8226, in the assay with SF-539, in the assay with NCI-H23, in the assay on CCRF-CEM, in the assay on KM12 and in the assay on SK-MEL-5 was > 100 µM (inactive) in each case. The GI50 in the assay on UACC-257, in the assay on COLO 205 and in the assay on IGROV-1 was > 100 µM (inactive) in each case.

Regarding `CC(=O)OC1(C)C(=O)OC1(C)C(C)=O` (stereo unspecified), the GI50 in the assay on EKVX, with MOLT-4, with SK-MEL-2, with OVCAR-3, in the assay on UACC-62 and in the assay with TK-10 was > 100 µM (inactive) each time. Besides, the GI50 in the assay with RPMI-8226, with SF-539, in the assay on NCI-H23, in the assay on CCRF-CEM, in the assay with KM12 and with SK-MEL-5 was > 100 µM (inactive) throughout. The GI50 with UACC-257, with COLO 205 and in the assay on IGROV-1 was > 100 µM (inactive) throughout.

Turning to `COc1ccc(NC(=O)C2C(=O)N(c3ccc(OC)cc3)C(=O)/C2=N\NC(N)=O)cc1` (stereo unspecified), the GI50 in the assay with EKVX is 40.6 µM (inactive); in the assay with SK-MEL-2, 40.9 µM (inactive); with OVCAR-3 it was 34 µM (inactive); in the assay on UACC-62 it was 16.6 µM (inactive); with TK-10, 23.9 µM (inactive); with RPMI-8226, > 100 µM (inactive). In addition, the GI50 with SF-539 is 16.8 µM (inactive); with NCI-H23, 56.1 µM (inactive); in the assay on KM12, 20.3 µM (inactive); with SK-MEL-5, 17.8 µM (inactive); in the assay on UACC-257, 46.9 µM (inactive); with COLO 205 it was > 100 µM (inactive). Also, the GI50 with IGROV-1 was 19.7 µM (inactive).

Turning to `COc1cc2ccnc(-c3c4ccccc4c(N)c4c(OC)c(OC)ccc34)c2cc1OC`, the GI50 is 10.4 µM (inactive) in the assay with EKVX; 1.49 µM (inactive) in the assay with MOLT-4; 4.86 µM (inactive) in the assay with SK-MEL-2; 2.79 µM (inactive) in the assay with UACC-62; 1.8 µM (inactive) in the assay with SR; 10.4 µM (inactive) with TK-10. In addition, the GI50 with SF-539 was 2.09 µM (inactive); in the assay with NCI-H23, 3.21 µM (inactive); with CCRF-CEM, 2.37 µM (inactive); in the assay on KM12 it was 2.38 µM (inactive); with SK-MEL-5, 3.27 µM (inactive); with UACC-257, 2.32 µM (inactive). Moreover, the GI50 in the assay with COLO 205 was 1.58 µM (inactive); with IGROV-1 it was 3.24 µM (inactive).

In the case of `C/C(CC(=O)CCCC(=O)Nc1ccc(Cl)cc1Cl)=N/NC(=O)CC#N`, the GI50 in the assay on EKVX, with MOLT-4, in the assay on SK-MEL-2, in the assay on OVCAR-3, with UACC-62 and in the assay on TK-10 was > 100 µM (inactive) throughout. The GI50 with RPMI-8226, in the assay on SF-539, with NCI-H23, in the assay with CCRF-CEM, with KM12 and with SK-MEL-5 was > 100 µM (inactive) each time. Further, the GI50 in the assay on UACC-257, in the assay with COLO 205 and in the assay with IGROV-1 was > 100 µM (inactive) each time.

With `COc1cc(C(=O)C/C(CCC(=O)Nc2ccccc2[N+](=O)[O-])=N\NC(=O)C(N)=O)ccc1O`, the GI50 in the assay with EKVX, with MOLT-4, in the assay with SK-MEL-2, with OVCAR-3, with UACC-62 and in the assay on SR was > 100 µM (inactive) each time. Also, the GI50 with TK-10, with SF-539, in the assay with NCI-H23, with CCRF-CEM, in the assay on KM12 and in the assay with UACC-257 was > 100 µM (inactive) in each case. Further, the GI50 in the assay with COLO 205 and in the assay with IGROV-1 was > 100 µM (inactive) in each case.

Regarding `OC12c3ccccc3C1(N1CCOCC1)CCCCC21OCCCO1` (stereo unspecified), the GI50 in the assay with MOLT-4, in the assay with SK-MEL-2, with OVCAR-3, with UACC-62, in the assay with TK-10 and in the assay on RPMI-8226 was > 100 µM (inactive) each time. Moreover, the GI50 in the assay on SF-539, with NCI-H23, with CCRF-CEM, in the assay on KM12, in the assay on SK-MEL-5 and in the assay on UACC-257 was > 100 µM (inactive) throughout. Moreover, the GI50 with COLO 205 and with IGROV-1 was > 100 µM (inactive) in each case.

On to `C[N+](C)=c1[nH]c2ccccc2[nH]1`, for which the GI50 in the assay with EKVX, in the assay with MOLT-4, in the assay with SK-MEL-2, with OVCAR-3, in the assay on UACC-62 and in the assay on TK-10 was > 100 µM (inactive) each time. Moreover, the GI50 in the assay with RPMI-8226, in the assay on SF-539, in the assay with NCI-H23, in the assay with CCRF-CEM, with KM12 and in the assay with SK-MEL-5 was > 100 µM (inactive) in each case. The GI50 in the assay with UACC-257, in the assay with COLO 205 and in the assay with IGROV-1 was > 100 µM (inactive) in each case.

For the compound `CCOc1ccccc1NC(=O)CSc1nnc(Cc2ccccc2)o1`, the GI50 was 23 µM (inactive) in the assay with MOLT-4; 23.8 µM (inactive) in the assay with SK-MEL-2; 17.1 µM (inactive) in the assay with OVCAR-3; 25.8 µM (inactive) with UACC-62; 71.1 µM (inactive) in the assay with TK-10; 35.6 µM (inactive) in the assay on RPMI-8226. Further, the GI50 in the assay with SF-539 is 25.5 µM (inactive); in the assay with NCI-H23, 17.2 µM (inactive); in the assay on CCRF-CEM, 33.5 µM (inactive); in the assay with KM12, 40.3 µM (inactive); with SK-MEL-5, 19.3 µM (inactive); with UACC-257 it was 29.7 µM (inactive). Moreover, the GI50 with COLO 205 is 20.6 µM (inactive); in the assay on IGROV-1 it was 47.5 µM (inactive).
